Where two headings read alike, the source gives them in different places.
System: pre-adipocytes 3T3-L1
Test: Differentiation of 3T3-L1 pre-adipocytes into adipocytes, lipid content by Oil Red colouring
Type: cell-based
Details: Mus musculus, 3T3-L1, retinoic acid 10 μM
Method: The study on the effect of this extract on a line of pre-adipocytes ET3-L1 induced as adipocytes is carried out according to a protocol which is known and which is in particular described in the document which appeared in Annu. Rev. Biochem., 1995, 64: 345-373, entitled “Transcriptional regulation of gene expression during adipocyte differentiation”, the authors of which were MacDougald O A and Lane M D.
This protocol is set out briefly below. The pre-adipocyte cells of the line e=3T3-L1 were kept in culture in a Dulbelcco modified Eagle medium (DMEM) containing 2 mM of glutamine, 4.5 g/l of glucose, 0.11 g/l of sodium pyruvate, 10% of calf serum (SVD) and antibiotics (50 U penicillin and 50 μg of streptomycin per ml of medium). Their differentiation as adipocytes was brought about in the following manner: firstly, the pre-adipocyte cells were cultivated with confluence for two days. At the time which will be referred to below as D0, the culture medium was replaced by a differentiation inducing medium (DIM) composed of DMEM containing 10% foetal calf serum (FCS) with the addition of 0.25 mM of isobutyl methyl xanthine (IBMX), 0.25 μM of dexamethasone and 1.74 μM of insulin. After two days of incubation, and therefore at time D2, the induction medium was delicately withdrawn and replaced by a new culture medium containing 10% of FCS and 0.174 μM of insulin. Next the culture medium was renewed every two days.
After seven days of culture, the lipid content of the pre-adipocyte cells was assessed by colouring with Oil Red. More precisely, the pre-adipocyte cells were fixed to 3.7% formaldehyde and then incubated for ten minutes with a Oil Red colorant solution (0.5% in an isopropanol/water mixture). After 10 minutes, the cellular carpet was rinsed with water and the pre-adipocyte cells were lysed with pure isopropanol. The optical density (OD) of the medium was measured at 540 nm.
The extract of the brown alga Halopteris scoparia was tested on 3T3-L1 cells during the induction phase by means of the DIM, which therefore commenced at day D0.
In the first experimental series, this extract was added from the very start of the differentiation (at time D0) and kept present in the medium until the cells were fixed (at time D7), by renewal every two days (that is to say at time D2 and D4). The extract was tested at the following three concentrations: 0.4%, 1% and 2.5%. In the same way, use was made of a sample of 10 μM retinoic acid, which is known for inhibiting the differentiation of pre-adipocytes into adipocytes, as is in particular described in the article which appeared in Differentiation, 1990, 45:119-127, entitled “The molecular basis for inhibition of adipose conversion of 3T3-L1 cells by retinoic acid”, the authors of which were Stone R L and Berlnohr D A. […]

SMILES: CC1=C(/C=C/C(C)=C/C=C/C(C)=C/C(=O)O)C(C)(C)CCC1 [Retinoic Acid, retinoic acid]
- inhibition at 10 µM (first experimental series, five manipulations, read-out: % inhibition of the differentiation): 82 ± 21%
- inhibition at 10 µM (presence from D0 to D2, read-out: % inhibition of differentiation): 40 ± 5%
- inhibition at 10 µM (presence from D0 to D7, second series, read-out: % inhibition of differentiation): 51 ± 3%
- inhibition at 10 µM (presence from D2 to D7, read-out: % inhibition of differentiation): 3 ± 2%
